# Reference: US6727263B2, “Indole and 2,3-dihydroindole derivatives, their preparation and use” (H. Lundbeck A/S, priority 1997, dated 2004)
# Structures can show the parent of a compound that is named as a salt. Where two headings read alike, the source gives them in different places.
# Legend:
# human 5-HT1A receptors = biological target: T1, human 5-HT1A receptors (Homo sapiens, UniProt P08908); experiment: Inhibition of 3H-5-CT binding to human 5-HT1A receptors
# T1 construct: expressed in transfected cells; host or cells: HeLa cells (HA7), used as cell homogenate
# T1 sequence (P08908 1-422): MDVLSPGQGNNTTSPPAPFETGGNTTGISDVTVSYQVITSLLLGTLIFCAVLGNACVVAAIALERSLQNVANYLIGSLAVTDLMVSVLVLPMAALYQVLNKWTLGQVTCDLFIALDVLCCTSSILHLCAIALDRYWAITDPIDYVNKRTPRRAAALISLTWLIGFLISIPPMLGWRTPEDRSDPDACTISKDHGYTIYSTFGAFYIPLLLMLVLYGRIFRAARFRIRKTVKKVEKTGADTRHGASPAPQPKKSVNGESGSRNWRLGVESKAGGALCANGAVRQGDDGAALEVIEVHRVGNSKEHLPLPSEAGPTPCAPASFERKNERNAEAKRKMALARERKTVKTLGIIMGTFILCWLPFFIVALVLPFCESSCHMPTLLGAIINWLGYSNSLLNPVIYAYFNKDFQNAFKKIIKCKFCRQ
# Description: Inhibition of ^3H-5-CT Binding to Human 5-HT1A Receptors
# Human 5-HT1A receptors (40 μg of cell homogenate) were incubated for 15 minutes at 37° C. in 50 mM Tris buffer at pH 7.7 in the presence of ^3H-5-CT. Non-specific binding was determined by including 10 μM of metergoline. The reaction was terminated by rapid filtration through Unifilter GF/B filters on a Tomtec Cell Harvester. Filters were counted in a Packard Top Counter.
# [1] = tested on: 3H-5-HT uptake into whole rat brain synaptosomes; experiment: Inhibition of 3H-5-HT uptake into rat brain synaptosomes; format: biochemical; conditions: 3H-5-HT accumulation into whole rat brain synaptosomes, in vitro; read-out: Inhibition of serotonin reuptake IC50
# Description: Inhibition of ^3H-5-HT Uptake Into Rat Brain Synaptosomes
# Using this method the ability of drugs to inhibit the accumulation of ^3H-5-HT into whole rat brain synaptosomes is determined in vitro.
# cloned 5-HT1A receptors = biological target: T2, cloned 5-HT1A receptors (Homo sapiens, UniProt P08908); experiment: Antagonism of 5-HT induced inhibition of forskolin induced cAMP accumulation; format: cell-based; conditions: cloned 5-HT1A receptors in transfected HeLa cells (HA7)
# T2 construct: expressed in transfected cells; host or cells: HeLa cells (HA7)
# T2 sequence (P08908 1-422): T1 sequence (P08908 1-422)
# Description: The assay was performed as a modification of the method described by Pauwels, P. J et al, Biochem. Pharmacol. 1993, 45, 375.
# [2] = read-out: Inhibition of 3H-5-CT binding IC50, cloned human 5-HT1A receptors expressed in transfected HeLa cells (HA7), cell homogenate, 15 minutes at 37° C., pH 7.7
Compound,melting point [°C],other results
"3-[2-[4-(1,4-Benzodioxan-5-yl)piperazin-1-yl]ethyl]-6-methyl-1H-indole hemifumarate [Compound 1k]",,IC50 (human 5-HT1A receptors; [2]): 2 nM; IC50 [1]: 18 nM; IC50 (cloned 5-HT1A receptors): 580 nM
"3-[2-[4-(1,4-Benzodioxan-5-yl)Piperazin-1-yl]Ethyl]-6-Chloro-1H-Indole Hemifumarate [Compound 3a]",,IC50 (human 5-HT1A receptors; [2]): 1.2 nM; IC50 [1]: 5.3 nM; IC50 (cloned 5-HT1A receptors): 500 nM
"c1cc2c(c(N3CCN(CCc4c[nH]c5ccccc45)CC3)c1)OCCO2 [Compound 2a, 3-[2-[4-(1,4-Benzodioxan-5-yl)Piperazin-1-yl]Ethyl]-1H-Indole Hemifumarate]",,IC50 (human 5-HT1A receptors; [2]): 2.9 nM; IC50 [1]: 3.5 nM; IC50 (cloned 5-HT1A receptors): 160 nM
"Clc1ccc2c(CCN3CCN(c4cccc5c4OCC5)CC3)c[nH]c2c1.O=C(O)C(=O)O [Compound 1o, 6-Chloro-3-[2-[4-(2,3-dihydrobenzofuran-7-yl)piperazin-1-yl]ethyl]-1H-indole oxalate]",205 to 207,IC50 (cloned 5-HT1A receptors): 3200 nM
CC1(C)Cc2cccc(N3CCN(CCc4c[nH]c5cc(Cl)ccc45)CC3)c2O1.O=C(O)/C=C/C(=O)O,165 to 167,
Clc1ccc2c(c1)C(CCN1CCN(c3cccc4c3OCCO4)CC1)CN2.O=C(O)C(=O)O (stereo not drawn),153 to 157,
Clc1ccc2c(CCN3CCN(c4cccc5c4SCC=C5)CC3)c[nH]c2c1 [Compound 1t],178 to 179,
Fc1ccc2[nH]cc(CCN3CCN(c4cccc5c4OCC5)CC3)c2c1.O=C(O)C(=O)O,145 to 149,
"Clc1ccc2c(CCN3CC=C(c4cccc5c4OCC5)CC3)c[nH]c2c1.O=C(O)C(=O)O [Compound 1x, 6-Chloro-3-[2-[4-(2,3-dihydrobenzofuran-7-yl)-1,2,3,6-tetrahydropyridin-1-yl]ethyl]-1H-indole oxalate]",211 to 214,IC50 (cloned 5-HT1A receptors): 3000 nM
"CC1(C)Cc2cccc(C3CCN(CCc4c[nH]c5cc(Cl)ccc45)CC3)c2O1 (as salt: oxalate) [Compound 1f, 6-Chloro-3-[2-[4-(2,2, -dimethyl-2,3-dihydrobenzofuran-7-yl)piperidin-1-yl]ethyl]-1H-indole oxalate]",190 to 193,
O=C(O)C(=O)O.c1cc2c(c(N3CCN(CCn4ccc5ccccc54)CC3)c1)OCCO2,225 to 229,
Brc1ccc2[nH]cc(CCN3CCN(c4cccc5c4SCC=C5)CC3)c2c1,166 to 167,
O=C(O)C(=O)O.c1ccc(CN2CC(CCN3CCN(c4cccc5c4OCCO5)CC3)c3ccccc32)cc1 (stereo not drawn),158 to 165,
Brc1ccc2[nH]cc(CCN3CCC(c4cccc5ccoc45)CC3)c2c1.O=C(O)C(=O)O,153 to 157,
Clc1ccc2c(ccn2CCN2CCN(c3cccc4c3OCCO4)CC2)c1.O=C(O)C(=O)O,234 to 235,
C#CCn1cc(CCN2CCN(c3cccc4c3OCCO4)CC2)c2ccccc21.O=C(O)C(=O)O,168 to 172,
"Clc1ccc2c(CCN3CCN(c4cccc5ccoc45)CC3)c[nH]c2c1 [Compound 1u, 3-[2-[4-(Benzofuran-7-yl)piperazin-1-yl]ethyl]-6-chloro-1H-indole]",202 to 204,IC50 (cloned 5-HT1A receptors): 2000 nM
Fc1ccc2c(ccn2CCN2CCN(c3cccc4c3OCCO4)CC2)c1.O=C(O)C(=O)O,230 to 231,

Compound,melting point [°C],other results
"Cc1cc2c(c(C3CCN(CCc4c[nH]c5cc(Cl)ccc45)CC3)c1)OC(C)(C)C2.O=C(O)/C=C/C(=O)O [Compound 1d, 6-Chloro-3-[2-[4-(2,2,5-trimethyl-2,3-dihydrobenzofuran-7-yl)piperidin-1-yl]ethyl]-1H-indole fumarate]",232 to 237,IC50 (human 5-HT1A receptors): 55 nM; IC50 [1]: 36 nM
Clc1ccc2ccn(CCN3CCN(c4cccc5c4OCCO5)CC3)c2c1.O=C(O)C(=O)O,234 to 235,
Fc1ccc2[nH]cc(CCN3CCC(c4cccc5ccoc45)CC3)c2c1.O=C(O)C(=O)O,191 to 194,
Clc1ccc2[nH]cc(CCN3CCN(c4cccc5c4SCC=C5)CC3)c2c1,152 to 153,
"CC1(C)Cc2cccc(C3=CCN(CCc4c[nH]c5cc(Cl)ccc45)CC3)c2O1 (as salt: oxalate) [Compound 1g, 6-Chloro-3-[2-[4-(2,2,-dimethyl-2,3,-dihydrohydrobenzofuran-7-yl)-1,2,3,6-tetrahydro-1-pyridyl]ethyl]-1H-indole oxalate]",200 to 204,
Clc1ccc2[nH]cc(CCN3CCN(c4cccc5ccsc45)CC3)c2c1.O=C(O)C(=O)O,175.2 to 176.6,
Clc1ccc2c(CCN3CCN(c4cccc5c4SCCC5)CC3)c[nH]c2c1 [Compound 1t],,IC50 (cloned 5-HT1A receptors): 5900 nM
"Clc1cc2c(c(N3CCN(CCc4c[nH]c5cc(Cl)ccc45)CC3)c1)OCCO2.O=C(O)C(=O)O [Compound 1l, 6-Chloro-3-[2-[4-(7-chloro-1,4-benzodioxan-5-yl)piperazin-1-yl]ethyl]-1H-indole oxalate]",237 to 238,IC50 (human 5-HT1A receptors): 12 nM; IC50 [1]: 7.7 nM
"CN1CC(CCN2CCN(c3cccc4c3OCCO4)CC2)c2ccccc21 (stereo not drawn) [Compound 6a, 3-[2-[4-(1,4-Benzodioxan-5-yl)Piperazin-1-yl]Ethyl]-2,3-Dihydro-1-Methyl-1H-Indole Oxalate]",,IC50 (cloned 5-HT1A receptors): 100 nM
C=CCN1CC(CCN2CCN(c3cccc4c3OCCO4)CC2)c2ccccc21.O=C(O)C(=O)O (stereo not drawn),133 to 136,
"CC1(C)Cc2cc(Cl)cc(N3CCN(CCc4c[nH]c5ccccc45)CC3)c2O1 [Compound 3b, 3-[2-[4-(5-Chloro-2,2-dimethyl-2,3-dihydrobenzofuran-7-yl)piperazin-1-yl]ethyl]-1H-indole hemifumarate]",,IC50 (human 5-HT1A receptors; [2]): 3.6 nM; IC50 [1]: 8.3 nM
"Clc1ccc2c(CCN3CCN(c4c(Cl)ccc5c4OCCO5)CC3)c[nH]c2c1.O=C(O)C(=O)O [Compound 1m, 6-Chloro-3-[2-[4-(6-Chloro-1,4-benzodioxan-5-yl)piperazin-1-yl]ethyl]-1H-indole oxalate]",216 to 217,IC50 (human 5-HT1A receptors): 99 nM; IC50 [1]: 57 nM
"COc1ccc2[nH]cc(CCN3CCN(c4cccc5c4OCCO5)CC3)c2c1 (as salt: oxalate) [Compound 1i, 3-[2-[4-(1,4-Benzodioxan-5-yl)piperazin-1-y]ethyl]-5-methoxy-1H-indole hemioxalate]",189 to 196,
O=C(O)C(=O)O.c1cc2c(c(N3CCN(CCn4ccc5ccccc54)CC3)c1)OCC2,223 to 226,
C=CCn1cc(CCN2CCN(c3cccc4c3OCCO4)CC2)c2ccccc21.O=C(O)C(=O)O,187 to 190,
"Cc1[nH]c2ccccc2c1CCN1CCN(c2cccc3c2OCCO3)CC1.O=C(O)C(=O)O [Compound 1c, 3-[2-[4-(1,4-Benzodioxan-5-yl)piperazin-1-yl]ethyl]-2-methyl-1H-indole oxalate]",205 to 208,IC50 (human 5-HT1A receptors): 2.5 nM; IC50 [1]: 45 nM
Brc1ccc2[nH]cc(CCN3CC=C(c4cccc5ccoc45)CC3)c2c1.O=C(O)C(=O)O,185 to 194,
"CC1(C)COc2c(N3CCN(CCc4c[nH]c5cc(Cl)ccc45)CC3)cc(Cl)cc21 [Compound 3c, 6-Chloro-3-[2-[4-(5-chloro-3,3-dimethyl-2,3-dihydrobenzofuran-7-yl)piperazin-1-yl]ethyl]-1H-indole hemifumarate]",,IC50 (cloned 5-HT1A receptors): 2600 nM
